Data reported in publication PMC12587601 (Antimicrobial Agents and Chemotherapy, 2025).
Marks after values point to notes of the source that are not given here.

Legend:
[1] = parameters: method as in PMID 19210693; settings: cross-over pharmacokinetic study; cited from earlier work
[2] = Population pharmacokinetic analysis of ritonavir plasma concentrations (CHAPAS-4 pharmacokinetic sub-study, week 6, NONMEM)
Procedure: The trial included children with HIV from Zambia, Uganda, and Zimbabwe, aged 3–15 years, weighing at least 14 kg (Table 1), receiving abacavir-, zidovudine-, or stavudine-containing NRTI backbone and failing on ART according to WHO criteria (confirmed viral load >1,000 copies/mL after adherence counseling or CD4 criteria for failure or clinical criteria for failure). A nested pharmacokinetic sub-study was conducted within the CHAPAS-4 trial. […] Written informed consent was given by parents/caregivers, and local and national ethics committees approved the main trial and nested pharmacokinetic sub-study.
The dose depended on the companion PI (Table 2). NRTI backbones were also dosed according to weight bands. Children were followed up for 96 weeks. Pharmacokinetic blood samples were collected after week 6 of study treatment. Samples were collected at pre-dose, 0.5 (only for those on TAF/FTC), 1, 2, 4, 6, 8, 12, and 24 hours post-dose, and plasma was stored at −80°C. On the day of pharmacokinetic blood sampling, study drugs were administered under direct observation, with food (breakfast with 5% fat, ~250 kCal). All non-ART co-medications were taken at least 2 hours after study drugs.
R v4.2.2 via RStudio (Posit Public Benefit Corporation) and Pirana v2.9.9 (Certara, Inc.) were utilized to visualize and process the data, and Perl Speaks NONMEM v5.2.6 (Department of Pharmacy, Uppsala University) was used for automation of the analysis processes ([17]).
We tested one- and two-compartment disposition models and several absorption models (sequential zero- and/or first-order, with lag time or transit compartments). Simple first-order elimination as well as first-pass and saturable elimination through a liver compartment were tested. We included between-subject variability (BSV) on disposition parameters and between-occasion variability (BOV) on absorption parameters, assuming a log-normal distribution. Combined additive and proportional error models to describe residual unexplained variability were evaluated. Samples with undetectable drug concentrations were treated as censored at the limit of detection (LOD), which was imputed as 30% of the LLOQ ([19]), and handled using a modified version of the M6 method by Beal ([20]). The undetectable (i.e., censored) values were imputed to half of the LOD value (LOD/2), and the additive error was inflated by LOD/2. If a series of undetectable values was present, the value closest to the peak concentration was retained, while all trailing values were excluded from the model fit but retained for simulation-based diagnostics.
(§1) Covariates were maintained if they reached statistical significance of P < 0.05 on forward addition and P < 0.01 on backward elimination. […] The performance of intermediate and final models was assessed both numerically and using goodness of fit plots, and by simulation-based diagnostics such as visual predictive checks (VPC) ([23]). Parameter precision was evaluated using the sampling importance resampling (SIR) procedure ([24]). The effect of covariates on the simulated area under the curve from 0 to 24 hours (AUC0–24 h) for all study arms was visualized using a forest plot based on 1,000 simulations accounting for parameter uncertainty ([25]).

[3] = Covariate effects forest plot of simulated ritonavir AUC0–24 h (1,000 simulations accounting for parameter uncertainty); parameters: species or system African children with HIV; settings: reference a child of 26 kg receiving 100 mg of ritonavir in combination with darunavir
Procedure: as §1

## CC(C)c1nc(CN(C)C(=O)N[C@H](C(=O)N[C@@H](Cc2ccccc2)C[C@H](O)[C@H](Cc2ccccc2)NC(=O)OCc2cncs2)C(C)C)cs1 [ritonavir]
[1]
  Lowering of plasma AUC of ritonavir by darunavir: 14%
[2]; atazanavir/ritonavir once daily, weight band 14–19.9 kg, ATV/r 200/75 mg, 3 out of 12 children got 100 mg ritonavir instead of 75 mg
  Observed Cmax of ritonavir, median (interquartile range): 2.68 (2.33–3.25)^a mg/L
[2]; darunavir/ritonavir once daily, weight band 20–24.9 kg, DRV/r 600/100 mg
  Observed Cmax of ritonavir, median (interquartile range): 1.27 (1.10–1.52) mg/L
[2]; darunavir/ritonavir once daily, weight band ≥35 kg, DRV/r 800/100 mg
  Observed Cmax of ritonavir, median (interquartile range): 0.81 (0.53–1.04) mg/L
[2]; human, in vivo
  Between-occasion variability, Bioavailability: 40.1 (35.2–46.0) %
  Between-occasion variability, First-order absorption rate constant: 114 (90.0–141) %
  Between-occasion variability, Lag time: 62.0 (54.5–70.2) %
  Between-occasion variability, Zero-order rate of absorption: 52.5 (42.7–63.0) %
  Between-subject variability, Clearance: 13.1 (10.2–15.8) %
  Extra variability for unobserved doses: 2.14 (1.53–2.42) fold change
  First-order absorption rate constant, typical value (95% confidence interval): 1.16 (0.893–1.89) 1/h
  Lag time, typical value (95% confidence interval): 0.981 (0.934–1.06) h
  Zero-order absorption duration, typical value (95% confidence interval): 2.45 (2.05–2.80) h
[2]; human, in vivo, po
  Central volume of distribution, typical value (95% confidence interval): 54.5 (48.9–60.4) L
  Clearance, typical value (95% confidence interval): 10.5 (9.22–11.9) L/h
  Cmax: 1.32 µg/mL
  Intercompartmental clearance, typical value (95% confidence interval): 1.19 (0.851–1.58) L/h
  Peripheral volume of distribution, typical value (95% confidence interval): 134 (38.8–330) L
[2]; human, in vivo, po, 100 mg, Observed Cmax of ritonavir, median (interquartile range)
  Cmax: 2.76 µg/mL
[2]; lopinavir/ritonavir twice daily, weight band 20–24.9 kg, daily dose LPV/r 400/100 mg
  Model-based AUC0–24 h of ritonavir, median (interquartile range): 10.3 (7.30–12.8) mg·h/L
[2]; lopinavir/ritonavir twice daily, weight band ≥35 kg, daily dose LPV/r 800/200 mg
  Observed Cmax of ritonavir, median (interquartile range): 0.80 (0.47–1.42) mg/L
[3]
  Increase of ritonavir AUC0–24 h by atazanavir: 99.0%
